Data as given in PubChem BioAssay (NCI).
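A five-concentration, 48-hour dose response in 96-well plates underlies each endpoint, interpolated linearly between surrounding concentrations. At the GI50, growth is halved. TGI: concentration producing complete growth inhibition.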

Experiments:
Assay in all cases: growth of human tumour cells (NCI), 48 h
[1] = tested on: ACHN renal
[2] = tested on: HCT-15 colon
[3] = tested on: K-562 leukemia
[4] = tested on: MDA-MB-231 breast
[5] = tested on: MOLT-4 leukemia
[6] = tested on: NCI-H23 lung
[7] = tested on: RPMI-8226 leukemia
[8] = tested on: SF-268 CNS
[9] = tested on: SW-620 colon
[10] = tested on: UACC-62 melanoma

In the case of `Nc1ccccc1NC(=O)c1ccc(CNc2nccc(-c3cccnc3)n2)cc1`, the GI50 [1] is reported as 1140 nM, the TGI [1] is reported as > 27.8 µM and the GI50 [2] is reported as 2060 nM. For the same molecule, the TGI [2] was > 44.1 µM, the GI50 [3] was 358 nM and the TGI [3] was > 100 µM. The GI50 [4] was 2440 nM, the TGI [4] was > 100 µM and the GI50 [5] was 643 nM. For the same molecule, the TGI [5] was > 23.2 µM, the GI50 [6] was 1400 nM and the TGI [6] was > 68.1 µM. For the same molecule, the GI50 [7] was 500 nM, the TGI [7] was 14.6 µM and the GI50 [8] was 995 nM. For the same molecule, the TGI [8] was > 21.4 µM, the GI50 [9] was 518 nM and the TGI [9] was > 100 µM. For the same molecule, the GI50 [10] was 476 nM and the TGI [10] was 2.17 µM.

`Nc1cc(F)ccc1CC(=O)O` was tested, and the TGI [1] was > 100 µM, the TGI [2] was > 100 µM and the TGI [3] was > 100 µM. For the same molecule, the TGI [4] was > 100 µM, the TGI [5] was > 100 µM and the TGI [6] was > 100 µM. For the same molecule, the TGI [7] was > 100 µM, the TGI [8] was > 100 µM and the TGI [9] was > 100 µM. The TGI [10] was > 100 µM.

`N#Cc1c(NC(=O)NCc2ccccc2)sc2c1CCCC2` was tested, and the GI50 [1] was 677 nM, the TGI [1] was > 100 µM and the GI50 [2] was 443 nM. The TGI [2] was > 100 µM, the GI50 [3] was 430 nM and the TGI [3] was > 100 µM. For the same molecule, the GI50 [4] was 1730 nM, the TGI [4] was > 42.4 µM and the GI50 [5] was 487 nM. For the same molecule, the TGI [5] was > 100 µM, the GI50 [6] was 1180 nM and the TGI [6] was > 26.3 µM. The GI50 [7] was 538 nM, the TGI [7] was > 100 µM and the GI50 [8] was 1820 nM. For the same molecule, the TGI [8] was > 100 µM, the GI50 [9] was 388 nM and the TGI [9] was > 100 µM. For the same molecule, the GI50 [10] was 455 nM and the TGI [10] was > 100 µM.

For `C=C(C)C1CC/C(C)=C/CCC2(C)OC2CC/C(CO)=C\C1O` (stereo not given), the TGI [1] was > 100 µM, the TGI [2] was > 100 µM and the TGI [3] was > 100 µM. For the same molecule, the TGI [4] was > 100 µM, the TGI [5] was > 100 µM and the TGI [6] was > 100 µM. The TGI [7] was > 100 µM, the TGI [8] was > 100 µM and the TGI [9] was > 100 µM. The TGI [10] was > 100 µM.

Work on `Cc1cc(Nc2ccc(OCc3ccccc3)cc2)nc2cc(O)ccc12` yielded a GI50 [1] of 3410 nM, a TGI [1] of 13.3 µM and a GI50 [2] of 2160 nM. The TGI [2] was 5.48 µM, the GI50 [3] was 1090 nM and the TGI [3] was 14.9 µM. It also gave a GI50 [4] of 2520 nM, a TGI [4] of 8.78 µM and a GI50 [5] of 3370 nM. The TGI [5] was 17.4 µM, the GI50 [6] was 6910 nM and the TGI [6] was 21.5 µM. For the same molecule, the GI50 [7] was 2500 nM, the TGI [7] was 8.33 µM and the GI50 [8] was 11900 nM. For the same molecule, the TGI [8] was 26.4 µM, the GI50 [9] was 5120 nM and the TGI [9] was 19.4 µM. It also gave a GI50 [10] of 2960 nM and a TGI [10] of 10.7 µM.

`CC1(C)N=C(N)N=C(N)N1c1ccc(CCCCc2ccccc2)c(Cl)c1` showed a GI50 [1] of 461 nM, a TGI [1] of 22.1 µM and a GI50 [2] of 522 nM. The TGI [2] was 35.5 µM, the GI50 [3] was 25.6 nM and the TGI [3] was > 51.2 µM. For the same molecule, the GI50 [4] was 444 nM, the TGI [4] was 5.85 µM and the GI50 [5] was 95 nM. The TGI [5] was 11.3 µM, the GI50 [6] was 54.3 nM and the TGI [6] was 10.2 µM. For the same molecule, the GI50 [7] was 127 nM, the TGI [7] was 11.6 µM and the GI50 [8] was 53.6 nM. The TGI [8] was 13.7 µM, the GI50 [9] was < 10 nM and the TGI [9] was 5.97 µM. For the same molecule, the GI50 [10] was 50.5 nM and the TGI [10] was 2.67 µM.

`CO/C=C/C(=O)c1cc2cnc3c(=N)cc(NC(=O)C(C)C)c([nH]1)c23` was tested, and the GI50 [1] was 100 nM, the TGI [1] was 1.67 µM and the GI50 [2] was 43.1 nM. It also gave a TGI [2] of 0.99 µM, a GI50 [3] of 117 nM and a TGI [3] of 17.4 µM. It also gave a GI50 [4] of 88.3 nM, a TGI [4] of 0.66 µM and a GI50 [5] of 15.9 nM. The TGI [5] was 0.166 µM, the GI50 [6] was 43.2 nM and the TGI [6] was 1.83 µM. The GI50 [7] was 14.9 nM, the TGI [7] was 0.0906 µM and the GI50 [8] was 61.6 nM. The TGI [8] was 0.918 µM, the GI50 [9] was 74.4 nM and the TGI [9] was 0.718 µM. For the same molecule, the GI50 [10] was 40.8 nM and the TGI [10] was 0.185 µM.

With `CCC(CC)c1nc(Nc2ccc(C(=O)OC)cc2)c2ccccc2n1` the GI50 [1] was 8100 nM, the TGI [1] was 18.1 µM and the GI50 [2] was 11000 nM. The TGI [2] was > 33.1 µM, the GI50 [3] was 7390 nM and the TGI [3] was > 31.6 µM. It also gave a GI50 [4] of 8590 nM, a TGI [4] of 22.8 µM and a GI50 [5] of 1410 nM. The TGI [5] was 3.67 µM, the GI50 [6] was 15500 nM and the TGI [6] was > 37.4 µM. It also gave a GI50 [7] of 5080 nM, a TGI [7] of 22.9 µM and a GI50 [8] of 6690 nM. The TGI [8] was 19.1 µM, the GI50 [9] was 12700 nM and the TGI [9] was > 27.7 µM. It also gave a GI50 [10] of 9130 nM and a TGI [10] of 18.6 µM.

For `CN(C)c1ccc(/C=C/c2ccnc3c(O)cccc23)cc1`, the GI50 [1] was 337 nM, the TGI [1] was > 100 µM and the GI50 [2] was 335 nM. The TGI [2] was > 100 µM, the GI50 [3] was 364 nM and the TGI [3] was > 100 µM. The GI50 [4] was 434 nM, the TGI [4] was > 100 µM and the GI50 [5] was 357 nM. The TGI [5] was > 100 µM, the GI50 [6] was 511 nM and the TGI [6] was > 100 µM. For the same molecule, the GI50 [7] was 482 nM, the TGI [7] was > 100 µM and the GI50 [8] was 463 nM. For the same molecule, the TGI [8] was > 100 µM, the GI50 [9] was 397 nM and the TGI [9] was > 100 µM. For the same molecule, the GI50 [10] was 294 nM and the TGI [10] was 1.07 µM.

`CC(C)N1CC2CN(Cc3ccccc3)CC(C1)C2=O` was tested, and the TGI [1] was > 100 µM, the TGI [2] was > 100 µM and the TGI [3] was > 100 µM. For the same molecule, the TGI [4] was > 100 µM, the TGI [5] was > 100 µM and the TGI [6] was > 100 µM. For the same molecule, the TGI [7] was > 100 µM, the TGI [8] was > 100 µM and the TGI [9] was > 100 µM. The TGI [10] was > 100 µM.

`Cc1cccc(-c2[nH]ncc2-c2ccc3ncccc3n2)n1` was tested, and the GI50 [1] was 7100 nM, the TGI [1] was > 25 µM and the GI50 [2] was 9980 nM. For the same molecule, the TGI [2] was > 25 µM, the GI50 [3] was > 25000 nM and the TGI [3] was > 25 µM. For the same molecule, the GI50 [4] was 14500 nM, the TGI [4] was > 25 µM and the GI50 [5] was 14200 nM. The TGI [5] was > 25 µM, the GI50 [6] was 14200 nM and the TGI [6] was > 25 µM. For the same molecule, the GI50 [7] was > 15100 nM, the TGI [7] was > 25 µM and the GI50 [8] was 10500 nM. The TGI [8] was > 25 µM, the GI50 [9] was 9880 nM and the TGI [9] was > 25 µM. For the same molecule, the GI50 [10] was 13700 nM and the TGI [10] was > 25 µM.

`Cc1ccc(NC(=O)c2ccc(CN3CCN(C)CC3)cc2)cc1Nc1nccc(-c2cccnc2)n1` gave a GI50 [1] of 24100 nM, a TGI [1] of 72.9 µM and a GI50 [2] of 16200 nM. It also gave a TGI [2] of 80.5 µM, a GI50 [3] of 41.4 nM and a TGI [3] of 3.72 µM. The GI50 [4] was 18300 nM, the TGI [4] was 46.2 µM and the GI50 [5] was 5110 nM. For the same molecule, the TGI [5] was 41.4 µM, the GI50 [6] was 15000 nM and the TGI [6] was 38.2 µM. It also gave a GI50 [7] of 7560 nM, a TGI [7] of 28.1 µM and a GI50 [8] of 25600 nM. The TGI [8] was 71 µM, the GI50 [9] was 24300 nM and the TGI [9] was 54.7 µM. The GI50 [10] was 19200 nM and the TGI [10] was 40.5 µM.

`Cc1cc(Cl)cc2c(N=Nc3ccc(S(N)(=O)=O)cc3)c(O)[nH]c12` was tested, and the GI50 [1] was > 25000 nM, the TGI [1] was > 25 µM and the GI50 [2] was > 25000 nM. The TGI [2] was > 25 µM, the GI50 [3] was > 25000 nM and the TGI [3] was > 25 µM. For the same molecule, the GI50 [4] was > 25000 nM, the TGI [4] was > 25 µM and the GI50 [5] was > 25000 nM. The TGI [5] was > 25 µM, the GI50 [6] was > 25000 nM and the TGI [6] was > 25 µM. The GI50 [7] was > 25000 nM, the TGI [7] was > 25 µM and the GI50 [8] was > 25000 nM. The TGI [8] was > 25 µM, the GI50 [9] was > 25000 nM and the TGI [9] was > 25 µM. For the same molecule, the GI50 [10] was > 25000 nM and the TGI [10] was > 25 µM.

For `COc1c(O)c(OC)c2oc(-c3ccc(O)c(O)c3)c(OC)c(=O)c2c1O`, the TGI [1] was > 100 µM, the TGI [2] was > 100 µM and the TGI [3] was > 100 µM. The TGI [4] was > 100 µM, the TGI [5] was > 100 µM and the TGI [6] was > 100 µM. For the same molecule, the TGI [7] was > 100 µM, the TGI [8] was 10.3 µM and the TGI [9] was > 100 µM. For the same molecule, the TGI [10] was 47.8 µM.

With `Cc1c(O)c2ccccc2oc1=O` the TGI [1] was > 100 µM, the TGI [2] was > 100 µM and the TGI [3] was > 100 µM. The TGI [4] was > 100 µM, the TGI [5] was > 100 µM and the TGI [6] was > 100 µM. For the same molecule, the TGI [7] was > 100 µM, the TGI [8] was > 100 µM and the TGI [9] was > 100 µM. For the same molecule, the TGI [10] was > 100 µM.
